Results: patent publication US20090192125A1, “Local anti-infective agent for treatment of nail fungal infections” (DermWorx Incorporated, priority 2007, published 2009)
Where two headings read alike, the source gives them in different places.

What was measured:
[1] = commercially available topical treatment of onychomycosis; cited from earlier work
[2] = for NaOM in 50 μL sample: 0.1 g nail pieces incubated 24 h at room temperature, extracted in 1 mL water for 24 h; for NaOM conc in sample: Extracting Solution
Procedure: These studies measured the penetration of stock solutions of sodium omadine in human fingernails. Sodium omadine (NaOM) 98% was obtained from Acros Organics, a division of Global Fisher Scientific.
Stock Solution #1. Dissolved 100 mg of NaOM in 100 mL of purified water (1.0 mg/mL).
Stock Solution #2. Diluted 2 mL of Stock Solution #1 to 100 mL of purified water (20 μg/mL).
Standard Solution #1 (2.50 μg/mL). Diluted 12.5 mL of Stock Solution #2 to 100 mL with purified water.
Standard Solution #2 (5.00 μg/mL). Diluted 25 mL of Stock Solution #2 to 100 mL with purified water.
Standard Solution #3 (7.50 μg/mL). Diluted 37.5 mL of Stock Solution #2 to 100 mL with purified water.
Standard Solution #4 (10.0 μg/mL). Diluted 50 mL of Stock Solution #2 to 100 mL with purified water.
Standard Solution #5 (20.0 μg/mL). No dilution was necessary, same as Stock Solution #2.
Nail clips, pooled from six human volunteers were cut into small pieces of approximately 0.5-1 mm×2-3 mm. The nail pieces, 0.1 g, were placed in each of the above solutions at room temperature and incubated for twenty-four hours. After incubation, the pieces were washed quickly three times with purified water to remove any residual solution on the nail surface. The pieces were then incubated in 1 mL of purified water for twenty-four hours at room temperature to extract the NaOM absorbed into the nail bed (“Extracting Solution”).
A standard curve of NaOM was made by measuring the absorption at 318 nm for a 500 μL sample containing 0.25, 0.50, 0.75, 1.0, and 2.0 μg of NaOM. An aliquot (50 μL) of each Standard Solution (#1-#5) was diluted to 500 μL with 1 mM cupric chloride (CuCl2). The standard solutions were freshly prepared and incubated at room temperature for fifteen minutes prior to spectrophotometric determination.
The amount of NaOM in each sample of Extracting Solution was determined at 318 nm. Similarly, a 50 μL aliquot of each Extracting Solution was diluted to 500 μL with 1 mM CuCl2 and incubated at room temperature for 15 minutes. The amount of NaOM in each sample of Extracting Solution was then determined at 318 nm by spectrophotometry. The concentration of the NaOM adsorbed into the nail was determined from the standard curve.

[3] = Penetration of hydroxypyridine-2-thione zinc (PT) into minced human fingernail clips (incubation, 30% DMSO extraction, absorption at 318 nm); format: in vitro ADME
Procedure: These studies measured the penetration of stock solutions of hydroxypyridine-2-thione zinc (PT) in human fingernails.
PT was dissolved in 100% DMSO at a concentration of 2 mg/mL to form a PT stock solution. PT working solution was made by mixing 300 μL of the PT stock solution with 700 μL of water. The final concentration was 0.6 mg/mL (30% DMSO). The nail pieces (0.1 g) were incubated in 1 mL of PT working solution overnight at room temperature. After incubation, the pieces were washed with water three times in a spin column. The pieces were then incubated in 200 μL of 30% DMSO to extract PT for 4 hours at room temperature (“Extracting Solution”).
A standard curve of PT was established by measuring the absorption at 318 nm in 500 μL samples of 30% DMSO containing 0.25, 0.5, 0.75, 1, and 2 μg PT. Standard solutions and subsequent dilutions were prepared as above. The solutions in their desired concentrations were then incubated at room temperature for 5 min prior to spectrophotometric determination.

[4] = 0.6 mg/mL PT working solution (30% DMSO), 0.1 g nail incubated overnight, extracted in 200 μL of 30% DMSO for 4 h

## Cc1cc(C2CCCCC2)n(O)c(=O)c1 [Ciclopirox, ciclopirox]
[1]
  penetration across the layers of the nail (in words): poor penetration

## [Na+].[O-][n+]1ccccc1[S-] [NaOM, Sodium omadine]
[2]; Wk Sol Conc 0.01 mg/mL
  NaOM in 0.1 g nail: 1.02 µg
  NaOM in 50 μL sample: 0.34 µg
  NaOM conc in sample: 7 µg/mL
[2]; Wk Sol Conc 0.05 mg/mL
  NaOM in 0.1 g nail: 2.10 µg
  NaOM in 50 μL sample: 0.70 µg
  NaOM conc in sample: 14 µg/mL
[2]; Wk Sol Conc 0.1 mg/mL
  NaOM in 0.1 g nail: 3.99 µg
  NaOM in 50 μL sample: 1.33 µg
  NaOM conc in sample: 27 µg/mL

## [O-]n1ccccc1=S.[O-]n1ccccc1=S.[Zn+2] [PT, hydroxypyridine-2-thione zinc]
[3]; [4]
  concentration of PT in Extracting Solution: 23000 ng/mL
  concentration of PT in Extracting Solution (per 50 μL aliquot): 1.15 μg/50 μL
[3]; twelve hours or less incubation time
  penetration into fingernails (conclusion in words): significant penetration
